Key:
Assay type in all cases: in vivo, C57BI/6J mice
[1] = system: idiopathic pulmonary fibrosis (bleomycin); experiment: Bleomycin IPF model: lung histology, Masson's Trichrome with Ashcroft scoring
Description: Animals were acclimated for two weeks prior to study initiation, and were randomized into the experimental groups outlined in Table 32. Intratracheal (IT) administration of Bleo or PBS control was conducted at the start of the study (Day 0). […] Following administration of Bleo, animals (n=10/group) were included in the study if they met the following guidelines on Day 7: […] A resection of the right lung was weighed and homogenized to determine total hydroxyproline levels by colorimetric assay, and the remaining lung lysate was saved for future analyses. For the morphological assessments, the left lung was inflation-fixed at 25 cm of water pressure with 4% paraformaldehyde in PBS for 1 minute, processed, and then sectioned. Morphological analysis of the lung was conducted using H&E-stained slides. Additional histologic stains for morphological analyses included Masson's Trichrome staining with Ashcroft scoring to determine severity of fibrosis.

[2] = Bleomycin IPF model: body weight and mortality; parameters: Mean Body Weight Change: unit not given here; details: for Mean Body Weight Change: Bleo + Pirfenidone (300 mg/kg) OG QOD from D7
Description: (§1) Male C57BI/6J mice, aged 12 weeks with an approximate weight of 25-30 g were obtained from Jackson Laboratories (Bar Harbor, ME). Animals were acclimated for two weeks prior to study initiation, and were randomized into the experimental groups outlined in Table 32.
(§2) Intratracheal (IT) administration of Bleo or PBS control was conducted at the start of the study (Day 0). […] Animals were weighed on Day 0, and indexed boluses of PBS control (Group 1) or Bleo (Groups 2-6) were delivered by IT administration.
Following administration of Bleo, animals (n=10/group) were included in the study if they met the following guidelines on Day 7: (1) a predictable 5% loss in body weight, and (2) the presence of fibrotic pulmonary lesions, detected by micro-CT imaging. 10 animals from Group 1 additionally proceeded as controls. Animals that continued in the study on Day 7 received an oral gavage (OG) administration of PBS, Compound A (1 mg/kg, 3 mg/kg, 10 mg/kg), or Pirfenidone (300 mg/kg), as outlined in Table 31 in 25 μL boluses every other day (QOD), starting on Day 7. Compound A was formulated in 5% (v/v) DMSO/15% (v/v) PEG 400/80% (v/v) E-TPGS in purified water. […]

[3] = system: idiopathic pulmonary fibrosis (bleomycin); experiment: Bleomycin IPF model: oxygen saturation (pulse oximetry); details: Bleo + Pirfenidone (300 mg/kg) OG QOD from D7
Description: as §1, §2
(§3) Following administration of Bleo, animals (n=10/group) were included in the study if they met the following guidelines on Day 7: (1) a predictable 5% loss in body weight, and (2) the presence of fibrotic pulmonary lesions, detected by micro-CT imaging. 10 animals from Group 1 additionally proceeded as controls. Animals that continued in the study on Day 7 received an oral gavage (OG) administration of PBS, Compound A (1 mg/kg, 3 mg/kg, 10 mg/kg), or Pirfenidone (300 mg/kg), as outlined in Table 31 in 25 μL boluses every other day (QOD), starting on Day 7. Compound A was formulated in 5% (v/v) DMSO/15% (v/v) PEG 400/80% (v/v) E-TPGS in purified water.
Body weights were obtained at Day 0 at the start of the study, and again at Day 7 to determine if an animal continued in the study. Body weight was measured daily from Day 7 until Day 21, and oxygen saturation was measured by a pulse oximetry (MouseOx) system QOD from Day 7 until study completion on Day 21, and results were plotted and analyzed by Kaplan-Meier plots.

[4] = system: hydroxyproline; experiment: Bleomycin IPF model: hydroxyproline content in lung lysates; parameters: Hydroxyproline Levels, Mean: unit not given here; details: Bleo + Pirfenidone (300 mg/kg) OG QOD from D7
Description: as §1, §2, §3
Animals were euthanized on Day 21 following Micro-CT imaging, and the right lung was collected for biochemical analysis, and the left lung was inflation-fixed for morphological assessments. A resection of the right lung was weighed and homogenized to determine total hydroxyproline levels by colorimetric assay, and the remaining lung lysate was saved for future analyses.

[5] = system: idiopathic pulmonary fibrosis (bleomycin); experiment: Bleomycin IPF model: functional lung volume by micro-CT; parameters: Functional Lung Volume, Mean: unit not given here; details: Day 21
Description: Animals were acclimated for two weeks prior to study initiation, and were randomized into the experimental groups outlined in Table 32. Intratracheal (IT) administration of Bleo or PBS control was conducted at the start of the study (Day 0). […] Following administration of Bleo, animals (n=10/group) were included in the study if they met the following guidelines on Day 7: […] Micro-CT imaging was also performed on Day 7 to determine relative fibrosis and on Day 21. […] Images were acquired with a respiratory gated technique with the following parameters: X-ray tube voltage: 90 KV; X-ray tube current: 88 μA; total scan time: 4 minutes. The system was calibrated monthly with standard phantoms for noise, uniformity, low contrast, and resolution to ensure consistency.

[6] = Bleo + Pirfenidone (300 mg/kg) OG QOD from D7

Cc1ccc(=O)n(-c2ccccc2)c1 [Pirfenidone, reference compound]
Ashcroft Scoring, Max [1, 6]: 6 | Ashcroft Scoring, Mean [1, 6]: 5.125 | Ashcroft Scoring, Min [1, 6]: 4 | Ashcroft scores relative to IPF control group ([1]; Day 21, Group 6, 300 mg/kg): significantly reduced Ashcroft scores | Fibrosis in lung tissue (Masson's Trichrome) compared to Group 2 (Bleo+Saline) ([1]; Group 5 (Compound A 10) and Group 6 (Pirfenidone)): qualitatively diminished | Mean Body Weight Change ([2]; Day 1): 2.308 | Mean Body Weight Change ([2]; Day 2): −0.484 | Mean Body Weight Change ([2]; Day 3): 0.051 | Mean Body Weight Change ([2]; Day 4): 4.604 | Mean Body Weight Change ([2]; Day 5): −5.992 | Mean Body Weight Change ([2]; Day 6): −9.221 | Mean Body Weight Change ([2]; Day 7): −11.372 | Mean Body Weight Change ([2]; Day 8): −14.446 | Mean Body Weight Change ([2]; Day 9): −14.694 | Mean Body Weight Change ([2]; Day 10): −15.574 | Mean Body Weight Change ([2]; Day 11): −14.209 | Mean Body Weight Change ([2]; Day 12): −13.437 | Mean Body Weight Change ([2]; Day 13): −12.258 | Mean Body Weight Change ([2]; Day 14): −12.644 | Mean Body Weight Change ([2]; Day 15): −13.627 | Mean Body Weight Change ([2]; Day 16): −13.391 | Mean Body Weight Change ([2]; Day 17): −13.251 | Mean Body Weight Change ([2]; Day 18): −15.138 | Mean Body Weight Change ([2]; Day 19): −14.921 | Mean Body Weight Change ([2]; Day 20): −15.674 | Mean Body Weight Change ([2]; Day 21): −15.557 | Body weight compared with Bleo+Saline treated animals ([2]; Compound A (all doses tested), Pirfenidone (300 mg/kg)): No significant difference | Mean Oxygen Saturation ([3]; Day 7): 81.08 | Mean Oxygen Saturation ([3]; Day 9): 84.55 | Mean Oxygen Saturation ([3]; Day 11): 83.32 | Mean Oxygen Saturation ([3]; Day 13): 84.28 | Mean Oxygen Saturation ([3]; Day 15): 87.03 | Mean Oxygen Saturation ([3]; Day 17): 87.08 | Mean Oxygen Saturation ([3]; Day 19): 89.13 | Mean Oxygen Saturation ([3]; Day 21): 89.18 | Hydroxyproline Levels, Mean [4]: 0.055 | Functional Lung Volume, Mean [5, 6]: 445.7025 | Functional lung volume relative to Group 2 ([5]; Group 6, Pirfenidone 300 mg/kg): significantly increased

Source: patent US20260217701A1, “SELECTIVE BET INHIBITORS AND USES THEREOF” (Tay Therapeutics Limited, priority 2022, published 2026)
